The values below come from US8772293B2, “Chemical compounds” (Pfizer Limited, priority 2010, dated 2014).

The structures appear in SMILES notation. pIC50: −log10 of the molar value. Counter-ions that a name gives are not always drawn.

For this test, the target named is T1, Nav1.7 (or SCN9A) channel (Homo sapiens, UniProt Q15858).
T1 construct: expressed in transfected cells
T1 sequence (Q15858 whole entry): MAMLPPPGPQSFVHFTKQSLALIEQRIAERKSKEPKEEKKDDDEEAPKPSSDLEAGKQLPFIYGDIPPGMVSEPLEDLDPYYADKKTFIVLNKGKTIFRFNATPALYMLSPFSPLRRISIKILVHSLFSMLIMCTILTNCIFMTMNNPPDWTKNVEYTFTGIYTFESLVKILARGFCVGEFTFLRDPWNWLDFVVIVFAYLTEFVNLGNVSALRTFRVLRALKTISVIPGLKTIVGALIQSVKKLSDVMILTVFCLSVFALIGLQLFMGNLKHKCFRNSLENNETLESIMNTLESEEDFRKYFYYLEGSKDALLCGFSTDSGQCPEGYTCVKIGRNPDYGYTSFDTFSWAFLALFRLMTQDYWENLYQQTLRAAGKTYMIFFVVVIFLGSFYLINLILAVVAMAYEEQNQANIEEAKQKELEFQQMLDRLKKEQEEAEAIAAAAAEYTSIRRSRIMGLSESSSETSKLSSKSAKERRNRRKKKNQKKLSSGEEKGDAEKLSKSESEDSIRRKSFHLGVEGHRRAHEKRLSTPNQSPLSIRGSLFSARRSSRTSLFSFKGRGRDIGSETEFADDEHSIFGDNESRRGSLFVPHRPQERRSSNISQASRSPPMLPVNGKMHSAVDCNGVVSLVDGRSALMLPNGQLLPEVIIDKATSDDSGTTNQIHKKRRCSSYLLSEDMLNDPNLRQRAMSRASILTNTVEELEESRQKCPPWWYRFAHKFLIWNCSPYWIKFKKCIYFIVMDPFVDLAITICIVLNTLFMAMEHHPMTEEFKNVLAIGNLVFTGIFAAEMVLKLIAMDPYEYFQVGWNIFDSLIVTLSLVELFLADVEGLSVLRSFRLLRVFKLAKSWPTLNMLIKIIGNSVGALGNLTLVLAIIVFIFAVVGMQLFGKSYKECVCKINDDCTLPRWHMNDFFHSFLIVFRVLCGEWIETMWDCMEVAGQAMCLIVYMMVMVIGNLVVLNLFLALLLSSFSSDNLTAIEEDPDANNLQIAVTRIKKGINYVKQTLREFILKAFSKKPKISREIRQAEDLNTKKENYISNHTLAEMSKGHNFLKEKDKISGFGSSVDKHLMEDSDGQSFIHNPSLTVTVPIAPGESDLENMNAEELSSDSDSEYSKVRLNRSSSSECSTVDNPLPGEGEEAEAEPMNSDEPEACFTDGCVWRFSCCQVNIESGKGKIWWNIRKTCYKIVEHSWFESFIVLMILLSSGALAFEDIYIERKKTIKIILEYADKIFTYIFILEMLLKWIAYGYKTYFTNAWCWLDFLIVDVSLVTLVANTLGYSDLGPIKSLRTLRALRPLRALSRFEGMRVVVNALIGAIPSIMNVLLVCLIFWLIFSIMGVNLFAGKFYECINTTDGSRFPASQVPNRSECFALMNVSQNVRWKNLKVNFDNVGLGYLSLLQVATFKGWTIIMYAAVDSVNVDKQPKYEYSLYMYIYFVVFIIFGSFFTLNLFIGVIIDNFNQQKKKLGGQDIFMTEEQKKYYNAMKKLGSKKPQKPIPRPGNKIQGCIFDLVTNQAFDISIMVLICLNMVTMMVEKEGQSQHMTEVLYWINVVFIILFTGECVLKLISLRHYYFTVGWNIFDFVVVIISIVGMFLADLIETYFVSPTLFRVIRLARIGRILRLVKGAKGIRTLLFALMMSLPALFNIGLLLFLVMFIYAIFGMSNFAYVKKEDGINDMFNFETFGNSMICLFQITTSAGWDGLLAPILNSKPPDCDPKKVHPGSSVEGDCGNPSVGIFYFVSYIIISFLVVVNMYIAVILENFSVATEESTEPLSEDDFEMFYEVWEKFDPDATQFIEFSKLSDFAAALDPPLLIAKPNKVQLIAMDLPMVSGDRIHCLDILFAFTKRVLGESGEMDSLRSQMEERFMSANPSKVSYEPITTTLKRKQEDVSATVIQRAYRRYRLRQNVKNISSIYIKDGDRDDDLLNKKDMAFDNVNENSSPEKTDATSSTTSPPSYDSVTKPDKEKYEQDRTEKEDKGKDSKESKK
Put plainly: Nav1.7 (hSCN9A) PatchXpress electrophysiology in HEK cells. The format is cell-based. Particulars: PatchXpress platform; HEK cells stably expressing hSCN9A; held at V1/2 of inactivation; calculated from single point % inhibition; read-out: Nav1.7 EIC50 (estimated IC-50). As for the experimental part:
The ability of the compounds of formula (I) to block the Nav1.7 (or SCN9A) channel were measured using the assay described below.
Human Embryonic Kidney (HEK) cells were transfected with an hSCN9A construct using lipofectamine reagent (Invitrogen), using standard techniques. Cells stably expressing the hSCN9A constructs were identified by their resistance to G-418 (400 μg/ml). Clones were screened for expression using the whole-cell voltage-clamp technique.
HEK cells stably transfected with hSCN9A were maintained in DMEM medium supplemented with 10% heat-inactivated fetal bovine serum and 400 µg/ml G-418 in an incubator at 37° C. with a humidified atmosphere of 10% CO2. For HTS, cells were harvested from flasks by trypsinization and replated in an appropriate multi-well plate (typically 96 or 384 wells/plate) such that confluence would be achieved within 24 hours of plating. For electrophysiological studies, cells were removed from the culture flask by brief trypsinization and re-plated at low density onto glass cover slips. Cells were typically used for electrophysiological experiments within 24 to 72 hours after plating.
Cover slips containing HEK cells expressing hSCN9A were placed in a bath on the stage of an inverted microscope and perfused (approximately 1 ml/minutes) with extracellular solution of the following composition: 138 mM NaCl, 2 mM CaCl2, 5.4 mM KCl, 1 mM MgCl2, 10 mM glucose, and 10 mM HEPES, pH 7.4, with NaOH. […] The osmolarity of the extracellular and intracellular solutions was 300 mOsm/kg and 295 mOsm/kg, respectively. All recordings were made at room temperature (22-24° C.) using AXOPATCH 200B amplifiers and PCLAMP software (Axon Instruments, Burlingame, Calif.).
hSCN9A currents in HEK cells were measured using the whole-cell configuration of the patch-clamp technique (Hamill et al., 1981). Uncompensated series resistance was typically 2 to 5 mega ohms and >85% series resistance compensation was routinely achieved. As a result, voltage errors were negligible and no correction was applied. Current records were acquired at 20 to 50 KHz and filtered at 5 to 10 KHz.
HEK cells stably transfected with hSCN9A were viewed under Hoffman contrast optics and placed in front of an array of flow pipes emitting either control or compound-containing extracellular solutions. All compounds were dissolved in dimethyl sulfoxide to make 10 mM stock solutions, which were then diluted into extracellular solution to attain the final concentrations desired. […] The voltage-dependence of inactivation was determined by applying a series of depolarizing prepulses (8 sec long in 10 mV increments) from a negative holding potential. The voltage was then immediately stepped to 0 mV to assess the magnitude of the sodium current. Currents elicited at 0 mV were plotted as a function of prepulse potential to allow estimation of the voltage at which 50% of the channels were inactivated (midpoint of inactivation or V1/2). Compounds were tested for their ability to inhibit hSCN9A sodium channels by activating the channel with a 20 msec voltage step to 0 mV following an 8 second conditioning prepulse to the empirically determined V1/2. Compound effect (% inhibition) was determined by difference in current amplitude before and after application of test compounds. For ease of comparison, “estimated IC-50” (EIC50) values were calculated from single point electrophysiology data by the following equation, (tested concentration, uM)×(100-% inhibition/% inhibition). Inhibition values <20% and >80% were excluded from the calculation.
Electrophysiological assays were conducted with PatchXpress 7000 hardware and associated software (Molecular Devices Corp). All assay buffers and solutions were identical to those used in conventional whole-cell voltage clamp experiments described above. hSCN9A cells were grown as above to 50%-80% confluency and harvested by trypsinization. […]
For `O=S(=O)(Nc1nncs1)c1cc(Cl)c(Oc2cc(Cl)c(-c3ccc(F)cc3)cc2-c2ccnnc2)cc1F` [Example 24, 5-Chloro-4-{[2-chloro-4′-fluoro-5-(pyridazin-4-yl)biphenyl-4-yl]oxy}-2-fluoro-N-(1,3,4-thiadiazol-2-yl)benzenesulfonamide], the pIC50 is 8.77.
The figure for `Nc1n[nH]cc1-c1cc(-c2cccc(C(F)(F)F)c2)ccc1Oc1cc(F)c(S(=O)(=O)Nc2nncs2)cc1Cl` [Example 25, 4-{[3-(3-Amino-1H-pyrazol-4-yl)-3′-(trifluoromethyl)biphenyl-4-yl]oxy}-5-chloro-2-fluoro-N-(1,3,4-thiadiazol-2-yl)benzenesulfonamide] is 9.10; for `O=S(=O)(Nc1nncs1)c1cc(Cl)c(Oc2cc(Cl)c(-c3cccc(F)c3)cc2-c2ccnnc2)cc1F` [Example 26, 5-Chloro-4-{[2-chloro-3′-fluoro-5-(pyridazin-4-yl)biphenyl-4-yl]oxy}-2-fluoro-N-(1,3,4-thiadiazol-2-yl)benzenesulfonamide] it is 8.64; for `O=S(=O)(Nc1nncs1)c1cc(Cl)c(Oc2cc(Cl)c(-c3ccccc3F)cc2-c2ccnnc2)cc1F` [Example 27, 5-Chloro-4-{[2-chloro-2′-fluoro-5-(pyridazin-4-yl)biphenyl-4-yl]oxy}-2-fluoro-N-(1,3,4-thiadiazol-2-yl)benzenesulfonamide] it is 9.05.
The figure for `O=S(=O)(Nc1nncs1)c1cc(Cl)c(Oc2cc(Cl)c(-c3cccc(C(F)(F)F)c3)cc2-c2ccnnc2)cc1F` [Example 28, 5-Chloro-4-{[2-chloro-5-(pyridazin-4-yl)-3′-(trifluoromethyl)biphenyl-4-yl]oxy}-2-fluoro-N-(1,3,4-thiadiazol-2-yl)benzenesulfonamide] is 9.05.
The figure for `O=S(=O)(Nc1nncs1)c1cc(Cl)c(Oc2ccc(-c3ccc(Cl)c(C(F)(F)F)c3)cc2-c2ccnnc2)cc1F` [Example 29, 5-Chloro-4-{[4′-chloro-3-(pyridazin-4-yl)-3′-(trifluoromethyl)biphenyl-4-yl]oxy}-2-fluoro-N-(1,3,4-thiadiazol-2-yl)benzenesulfonamide] is 9.10; for `O=S(=O)(Nc1nncs1)c1cc(Cl)c(Oc2ccc(-c3ccc(C(F)(F)F)nc3)cc2-c2ccnnc2)cc1F` [Example 30, 5-Chloro-2-fluoro-4-{2-(pyridazin-4-yl)-4-[6-(trifluoromethyl)pyridin-3-yl]phenoxy}-N-(1,3,4-thiadiazol-2-yl)benzenesulfonamide] it is 7.64.
As for `O=S(=O)(Nc1nncs1)c1cc(Cl)c(Oc2ccc(-c3cccc(C(F)(F)F)n3)cc2-c2ccnnc2)cc1F` [Example 31, 5-Chloro-2-fluoro-4-{2-(pyridazin-4-yl)-4-[6-(trifluoromethyl)pyridin-2-yl]phenoxy}-N-(1,3,4-thiadiazol-2-yl)benzenesulfonamide], the pIC50 is 7.80.
As for `N#Cc1cccc(-c2ccc(Oc3cc(F)c(S(=O)(=O)Nc4nncs4)cc3Cl)c(-c3c[nH]nc3N)c2)c1` [Example 32, 4-{[3-(5-Amino-1H-pyrazol-4-yl)-3′-cyanobiphenyl-4-yl]oxy}-5-chloro-2-fluoro-N-(1,3,4-thiadiazol-2-yl)benzenesulfonamide], the pIC50 is 8.28.
Regarding `O=S(=O)(Nc1nncs1)c1cc(Cl)c(Oc2ccc(-c3ccnc(C(F)(F)F)c3)cc2-c2ccnnc2)cc1F` [Example 33], the pIC50 was 7.80.
The figure for `O=S(=O)(Nc1nncs1)c1cc(Cl)c(Oc2ccc(-c3ccc(C(F)(F)F)cc3)cc2-c2ccnc(N3CCNCC3)c2)cc1F` [Example 34, 5-Chloro-2-fluoro-4-({3-[2-(piperazin-1-yl)pyridin-4-yl]-4′-(trifluoromethyl)biphenyl-4-yl}oxy)-N-(1,3,4-thiadiazol-2-yl)benzenesulfonamide, hydrochloride] is 9.30; for `O=S(=O)(Nc1ccncn1)c1cc(Cl)c(Oc2ccc(-c3ccc(C(F)(F)F)cc3)cc2-c2ccnc(N3CCNCC3)c2)cc1F` [Example 35, 5-Chloro-2-fluoro-4-({3-[2-(piperazin-1-yl)pyridin-4-yl]-4′-(trifluoromethyl)biphenyl-4-yl}oxy)-N-(pyrimidin-4-yl)benzenesulfonamide hydrochloride salt] it is 8.66; for `O=S(=O)(Nc1nncs1)c1cc(Cl)c(Oc2cc(-c3cccc(F)c3)c(Cl)cc2-c2ccnnc2)cc1F` [Example 36, 5-Chloro-4-[(6-chloro-3′-fluoro-4-pyridazin-4-ylbiphenyl-3-yl)oxy]-2-fluoro-N-1,3,4-thiadiazol-2-ylbenzenesulfonamide] it is 7.96.
With `O=S(=O)(Nc1nncs1)c1cc(Cl)c(Oc2cc(-c3ccc(F)cc3)c(Cl)cc2-c2ccnnc2)cc1F` [Example 37, 5-Chloro-4-[(6-chloro-4′-fluoro-4-pyridazin-4-ylbiphenyl-3-yl)oxy]-2-fluoro-N-1,3,4-thiadiazol-2-ylbenzenesulfonamide] the figure was 7.92.
In the case of `O=S(=O)(Nc1nncs1)c1cc(Cl)c(Oc2cc(-c3ccccc3F)c(Cl)cc2-c2ccnnc2)cc1F` [Example 38, 5-Chloro-4-[(6-chloro-2′-fluoro-4-pyridazin-4-ylbiphenyl-3-yl)oxy]-2-fluoro-N-1,3,4-thiadiazol-2-ylbenzenesulfonamide], the pIC50 was 7.74.
The figure for `N#Cc1cccc(-c2ccc(Oc3cc(F)c(S(=O)(=O)Nc4nncs4)cc3Cl)c(-c3ccnnc3)c2)c1` [Example 39, 5-chloro-4-[(3′-cyano-3-pyridazin-4-ylbiphenyl-4-yl)oxy]-2-fluoro-N-1,3,4-thiadiazol-2-ylbenzenesulfonamide] is 8.11; for `O=S(=O)(Nc1ncccn1)c1cc(Cl)c(Oc2ccc(-c3ccc(C(F)(F)F)cc3)cc2-c2ccnc(N3CCNCC3)c2)cc1F` [Example 40, 5-chloro-2-fluoro-4-{[3-(2-piperazin-1-ylpyridin-4-yl)-4′-(trifluoromethyl)biphenyl-4-yl]oxy}-N-pyrimidin-2-ylbenzenesulfonamide] it is 9.00.
